Data on six compounds can be found in PMC5622733, “Polymethoxyflavones: Novel β-Secretase (BACE1) Inhibitors from Citrus Peels” (Nutrients, 2017).

In series [1] the test system is inducible nitric oxide synthase (iNOS), cyclooxygenase-2 (COX-2). The conditions noted are these: cited from earlier work.
The test system of series [2] is ERK and CREB signaling pathways. The following applies: cited from earlier work.
For series [3] the following is noted: cited from earlier work.
For series [4] the following is noted: cited from earlier work. The source holds these as a separate data set.
A further series has as its target T1, Elastase (Sus scrofa, UniProt P00772).
T1 construct: purchased Sigma-Aldrich (St. Louis, MO, USA)
Nature of the series: Elastase assay. The conditions noted are these: read-out: Inhibitory activity (%) against Elastase. In kind it is biochemical. How it is done:
(§1) BACE1 inhibition was determined by enzymatic assay using the fluorescent resonance energy transfer (FRET)-based BACE1 kit from Invitrogen (Pan Vera, Madison, WI, USA). α-Secretase (tumor necrosis factor-α converting enzyme, TACE) and substrate were obtained from R&D Systems (Minneapolis, MN, USA). Trypsin, chymotrypsin, elastase, and their substrates were obtained from Sigma-Aldrich (St. Louis, MO, USA). The measurement of fluorescence and optical density was performed with a BioTEK ELISA microplate fluorescence reader FLx 800 and BioTEK ELx 808 (Winooski, VT, USA), respectively.
(§2) BACE1, TACE, chymotrypsin, trypsin and elastase assays were performed according to previous methods. Fluorometric BACE1 and TACE assay were measured using a Rh-[…]-Quencher and Mca-PLAQAV-Dpa-RSSSR-NH2 as substrates. Trypsin, chymotrypsin, and elastase were assayed according to the manual described in the reference using N-benzoyl-L-Arg-pNA, N-benzoyl-L-Tyr-pNA, and N-succinyl-Ala-Ala-Ala-pNA as substrates, respectively.

The target in series [5] is T2, α-secretase (tumor necrosis factor-α converting enzyme, TACE) (Homo sapiens, UniProt P78536).
T2 construct: purchased R&D Systems (Minneapolis, MN, USA)
Briefly: TACE (α-secretase) fluorometric assay. In kind it is biochemical. The following applies: read-out: Inhibitory activity (%) against TACE. How it is done:
as §1, §2

In series [6] the target is T3, BACE1 (Homo sapiens, UniProt P56817).
T3 construct: purchased Invitrogen (Pan Vera, Madison, WI, USA)
Nature of the series: BACE1 inhibition kinetics (Dixon and Lineweaver–Burk plots). In kind it is biochemical. The conditions noted are these: for Type of inhibition: Dixon and Lineweaver–Burk plots; for Ki: substrate 250-750 nM, read-out: Ki calculated from the Dixon plots. How it is done:
The kinetic mechanisms of the different samples towards BACE1 were determined by the graphical views of Dixon and Lineweaver–Burk plots. The inhibitory constants (Ki) value was defined by interpretation of the Dixon plot, where the value of the x-axis implies -Ki. […] The kinetic parameters were then calculated using Enzyme Kinetic^TM module of SigmaPlot^TM version 12.3 (Systat Software, Inc., San Jose, CA, USA).

For the next series, the system named is APP-SL 7-5 Tg mice. The following applies: daily from 4 to 9 months of age; cited from earlier work.
Another series has as its system 3XTg-AD mice. The conditions noted are these: cited from earlier work.
The target in series [7] is T3, BACE1. Nature of the series: FRET-based BACE1 inhibition assay. It counts as biochemical. The conditions noted are these: FRET substrate Rh-[…]-Quencher. How it is done:
as §1, §2

Another series has as its target T4, Chymotrypsin (Bos taurus, UniProt P00766).
T4 construct: purchased Sigma-Aldrich (St. Louis, MO, USA)
Briefly: Chymotrypsin assay. It counts as biochemical. The conditions noted are these: read-out: Inhibitory activity (%) against Chymotrypsin. How it is done:
as §1, §2

In series [8] the test system is olfactory bulbectomy-induced memory impairment. The following applies: administration for 11 days; cited from earlier work.
Another series relates to Trypsin. Nature of the series: Trypsin assay. It counts as biochemical. How it is done: as §1, §2
The next series deals with P-glycoprotein (P-gp). Details: method as in PMID 11098080, PMID 17348674. The following applies: adriamycin-resistant human myelogenous leukemia cells and Caco-2 cells, talinolol as probe; cited from earlier work.
The test system of series [9] is cyclic AMP response element-mediated transcription. Details: method as in PMID 23588349. The following applies: rat hippocampal neurons; cited from earlier work.
For series [10] the following is noted: chronic oral administration; cited from earlier work.
For series [11], the system named is primary rat microglia and BV-2 microglial cell. The following applies: LPS-induced; cited from earlier work.
For series [12] the following is noted: rats, up to 1000 to 3000 mg/kg bw; cited from earlier work.
The test system of the next series is 6-OHDA-lesioned rats. The following applies: 20 mg/kg/day for 4 days before 6-OHDA injection; cited from earlier work.

Each structure is given as a SMILES string.

T1 sequence (P00772 27-266): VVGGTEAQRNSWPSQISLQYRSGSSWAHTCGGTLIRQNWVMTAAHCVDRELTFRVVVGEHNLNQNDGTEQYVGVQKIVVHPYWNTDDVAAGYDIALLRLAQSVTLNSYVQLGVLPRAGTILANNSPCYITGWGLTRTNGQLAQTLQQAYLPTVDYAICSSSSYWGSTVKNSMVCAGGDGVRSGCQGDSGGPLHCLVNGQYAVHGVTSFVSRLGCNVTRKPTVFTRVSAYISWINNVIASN
T2 sequence (P78536 215-824): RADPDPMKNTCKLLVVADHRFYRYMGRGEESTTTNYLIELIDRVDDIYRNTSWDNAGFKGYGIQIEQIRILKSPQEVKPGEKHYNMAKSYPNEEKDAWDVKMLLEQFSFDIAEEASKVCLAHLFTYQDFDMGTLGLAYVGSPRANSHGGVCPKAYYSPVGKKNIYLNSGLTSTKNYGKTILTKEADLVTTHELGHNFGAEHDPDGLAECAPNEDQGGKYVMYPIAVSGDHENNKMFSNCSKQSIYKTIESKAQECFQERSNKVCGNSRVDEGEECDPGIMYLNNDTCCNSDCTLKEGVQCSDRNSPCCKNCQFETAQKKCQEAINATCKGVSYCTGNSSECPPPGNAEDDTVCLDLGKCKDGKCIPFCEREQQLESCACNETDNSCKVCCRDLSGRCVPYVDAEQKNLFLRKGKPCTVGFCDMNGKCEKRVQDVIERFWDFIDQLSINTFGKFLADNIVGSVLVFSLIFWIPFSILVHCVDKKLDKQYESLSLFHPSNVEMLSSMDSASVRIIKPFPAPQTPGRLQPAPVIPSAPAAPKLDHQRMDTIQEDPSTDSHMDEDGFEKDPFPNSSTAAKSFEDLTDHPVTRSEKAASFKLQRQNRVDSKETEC
T3 sequence (P56817 46-501): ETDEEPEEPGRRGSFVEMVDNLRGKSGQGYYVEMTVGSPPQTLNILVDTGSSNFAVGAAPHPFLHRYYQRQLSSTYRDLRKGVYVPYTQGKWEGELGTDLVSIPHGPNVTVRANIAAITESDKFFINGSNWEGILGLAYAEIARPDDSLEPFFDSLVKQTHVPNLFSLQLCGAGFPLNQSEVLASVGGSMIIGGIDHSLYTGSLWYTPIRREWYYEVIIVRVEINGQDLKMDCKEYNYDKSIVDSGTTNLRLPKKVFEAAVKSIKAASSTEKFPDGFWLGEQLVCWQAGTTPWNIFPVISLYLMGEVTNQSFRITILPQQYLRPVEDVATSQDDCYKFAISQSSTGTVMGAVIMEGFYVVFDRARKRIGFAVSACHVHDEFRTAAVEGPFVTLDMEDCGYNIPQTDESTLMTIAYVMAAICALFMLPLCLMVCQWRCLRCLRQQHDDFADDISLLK

Regarding `COc1c(OC)c(OC)c2c(=O)cc(-c3ccc(O)c(O)c3)oc2c1OC` [3′,4′-di-DMN], the “Suppression of gene expression of iNOS and COX-2 relative to parent compound” value in series [1] is “more efficiently suppressed”.
For `COc1ccc(-c2cc(=O)c3c(OC)c(OC)c(OC)c(OC)c3o2)cc1O` [3′-DMN], the “iNOS inhibition relative to nobiletin” value in series [1] is on record as “more efficiently than nobiletin”.
Turning to `COc1cc(-c2cc(=O)c3c(OC)c(OC)c(OC)c(OC)c3o2)ccc1O` [4′-DMN], the “Phosphorylation of ERK and CREB” value in series [2] is “stimulate phosphorylation”. Further, the “Suppression of gene expression of iNOS and COX-2 relative to parent compound” value in [1] was “more efficiently suppressed”. Further, in series [3], the “Ability to cross the blood–brain barrier (BBB)” value is given as “able to cross the blood–brain barrier (BBB)”.
Usually Ki stands for the equilibrium dissociation constant of an inhibitor or competing ligand from its target. By IC50 is commonly meant the point on the concentration scale where inhibition reaches its midpoint. High values mean lower potency, low ones higher potency. In the case of `COc1ccc(-c2cc(=O)c3c(OC)c(OC)c(OC)c(OC)c3o2)cc1OC` [Nobiletin, 5,6,7,8,3′,4′-hexamethoxyflavone], in series [4] (mice, oral 50 mg/kg), the “Content in the brain” value is listed as 3.6 mg/kg and the “Content in the brain (molar)” value is listed as “approximately 8.9 µM”. Besides, the “Accumulation in the brain versus liver” value in [4] (oral administration) is listed as “much higher than that in the liver”. For the same compound, on Elastase, the inhibition at 50 µM stood at 5.51 ± 1.17% and the inhibition at 100 µM turned out to be 4.49 ± 1%. In addition, in series [5], the inhibition at 50 µM worked out at 5.49 ± 0.34% and the inhibition at 100 µM worked out at 11.6 ± 3.07%. Besides, at BACE1 [6], the Type of inhibition entry is given as “noncompetitive” and the Ki was 34 µM. Moreover, in the series on APP-SL 7-5 Tg mice, the “Aβ1-42 and Aβ1-40 in the brain” value was “reduced quantity”; the “Memory impairment, context-dependent fear conditioning test” value was “significantly reversed memory impairment”. For the same compound, the “Soluble Aβ1-40 and ROS levels in brain and hippocampus” value in the series on 3XTg-AD mice is listed as “reduced the levels”. Moreover, the IC50 on BACE1 [7] turned out to be 59 µM. Moreover, on Chymotrypsin, the inhibition at 50 µM stood at 1.39 ± 0.17% and the inhibition at 100 µM stood at 1.77 ± 0.06%. Further, in series [8], the Memory impairment result was “significantly recovered”. The “Inhibitory activity (%) against Trypsin” value in the series with Trypsin (50 μM) came to 1.00 ± 0.07%. For the same compound, the “Inhibitory activity (%) against Trypsin” value in the series with Trypsin (100 μM) amounted to 0.92 ± 0.06%. In the series on P-glycoprotein (P-gp), the P-gp inhibition entry is on record as “inhibitory potential with P-gp”.
With `COc1ccc(-c2cc(=O)c3c(OC)c(OC)c(OC)cc3o2)cc1OC` [Sinensetin, 5,6,7,3′,4′-pentamethoxyflavone], the CRE-mediated transcription result in series [9] is on record as “activate”. In addition, the inhibition at 50 µM came to 7.4 ± 2.09% at Elastase, 7.88 ± 1.12% in series [5] and 9.08 ± 0.48% on Chymotrypsin. Moreover, the values for the inhibition at 100 µM (at Elastase; in [5]; on Chymotrypsin) were 11.4 ± 1.38%, 7.19 ± 1.35% and 8.78 ± 0.8%, respectively. Moreover, at BACE1 [6], the Type of inhibition entry is given as “noncompetitive”. For the same compound, the Ki on BACE1 [6] is 38 µM. Further, the IC50 against BACE1 [7] stood at 63 µM. Moreover, the “Inhibitory activity (%) against Trypsin” value in the series with Trypsin (50 μM) is 5.16 ± 0.69%; in the series with Trypsin (100 μM), 4.70 ± 0.58%.
As to `COc1ccc(-c2cc(=O)c3c(OC)c(OC)c(OC)c(OC)c3o2)cc1` [Tangeretin, 5,6,7,8,4′-pentamethoxyflavo-ne], the “Detection in the hippocampus” value in series [10] was “detected in the hippocampus”. Moreover, the inhibition at 50 µM on Elastase worked out at 8.64 ± 0.65%; in [5], 8 ± 1%; on Chymotrypsin, 5.68 ± 0.86%. Besides, the inhibition at 100 µM worked out at 10.6 ± 1.09% at Elastase, 11.3 ± 1.66% in series [5] and 6.16 ± 0.38% on Chymotrypsin. Besides, the Type of inhibition entry on BACE1 [6] is given as “noncompetitive”. The Ki on BACE1 [6] is 37 µM. This compound registered a half-inhibitory concentration (IC50) against BACE1 [7] of 49 µM. Moreover, the “Inhibitory activity (%) against Trypsin” value in the series with Trypsin (50 μM) worked out at 8.10 ± 0.99%; in the series with Trypsin (100 μM), 11.80 ± 1.04%. In series [11], the Microglial cell activation entry is recorded as “suppressed”. Further, the P-gp inhibition entry with P-glycoprotein (P-gp) is given as “inhibitory potential with P-gp”. The “Death and clinical chemistry in oral acute and sub-acute study” value in [12] is “no evidence of death nor significant change of clinical chemistry”. The “Loss of TH+ cells and striatal dopamine content” value in the series on 6-OHDA-lesioned rats is reported as “markedly reduced the loss”.
